Results: US12357608B2, “Methods and compositions utilizing RRx-001 combination therapy for radioprotection” (priority 2018, dated 2025)
“Also recorded” adds a separate entry of the source.

What was measured:
CD2F1 male mice [1] = assay: Survival following lethal total body irradiation (TBI); assay type: in vivo
Description: In this Example, the effects of systemic administration of RRx-001 on survival in response to a lethal dose of radiation was assayed in mice. CD2F1 male mice 9.5-11 weeks old were administered a single dose of RRx-001 by intraperitoneal (IP) injection 24 hours prior to a lethal radiation dose. 24 mice received 10 mg/kg RRx-001 (formulated in 5% DMSO in sterile H2O) and 24 mice received the vehicle control (5% DMSO) in sterile H2O only).
The mice were subjected to total body irradiation (TBI) with 9.35 Gy (LD70/30) at 0.6 Gy/min using High-level Cobalt-60. Unanesthetized mice were placed in well-ventilated Plexiglas restrainers and irradiated bilaterally. Sham-irradiated mice were also placed in identical Plexiglas restrainers and kept in a room shielded from irradiation at the same time. In each experiment, the dose to the abdominal cores of the animals was delivered at a dose rate of approximately 0.6 Gy/min. Dosimetry was performed prior to the irradiation of the animals using the highly accurate alanine/electron spin resonance (ESR) dosimetry system (American Society for Testing and Materials, Standard E 1607) to measure dose rates (to water) in the cores of acrylic mouse phantoms, which were located in the compartments of the exposure rack. A calibration curve based on standard alanine calibration dosimeters provided by the National Institute of Standards and Technology (NIST, Gaithersburg, MD) was used to measure the doses. The accuracy of the dose rate calibrations has been verified several times using the services of the National Physics Laboratory (UK National Standards Laboratory, London, UK) and the M.D. Anderson Cancer Center (Houston, TX). The corrections applied to the measured dose rates in the phantoms were for a small difference in the Co-60 energy between the mass energy-absorption coefficients for soft tissue and water, as well as source decay. The radiation field was uniform within ±1.2%.
Mice were monitored at least twice a day for 30 days post-irradiation. During the critical period (days 10-20), mice were monitored at least three times a day with no more than 10 hours between observations. Mice displaying any signs of discomfort received food in their cage as a wet mash. Mice displaying overt dyspnea, weight loss, lethargy, or other markers of moribundity and appearing to be in distress were humanely euthanized in a separate room using carbon dioxide gas followed by cervical dislocation after breathing stopped as a confirmatory method of euthanasia. This experiment was repeated for a total of n=24 mice per group.
Survival curves were estimated using the Kaplan-Meier method and were compared using a two-sided log-rank test at the 0.05 significance level. P-values were considered statistically significant if less than 0.05.

CD2F1 male mice [2] = assay: Complete blood count with differential and reticulocytes after sublethal TBI or sham irradiation; assay type: in vivo; settings: 7 Gy TBI
Description: To determine the pathophysiological effects of RRx-001 on hematopoietic protection in mice, CD2F1 male mice were treated with 10 mg/kg RRx-001 or the vehicle control 24 hours prior to a sublethal dose of TBI (7 Gy at 0.6 Gy/min using High-level Cobalt-60) or sham irradiation (day 0) according to the table below.
CD2F1 male mice (n=3/group) were divided into 4 experimental groups: 1) irradiation+vehicle, 2) irradiation+RRx-001, 3) sham-irradiation+vehicle and 4) sham-irradiation+RRx-001. Either 10 mg/kg RRx-001 or the vehicle control were IP injected 24 hours prior to either irradiation or sham-irradiation (day 0). On days 2, 7, 14, 21, and 28 post-irradiation (day 0) mice were humanely euthanized. Blood, bone marrow, and sternebrae were then collected. This experiment was performed in duplicate for a total of n=6 mice/group/time point.
Post-irradiation whole blood was obtained by terminal cardiocentesis. Blood samples were immediately transferred into EDTA tubes (Sarstedt Inc., Newton, NC) and gently rotated until the time of analysis. The tubes were analyzed for a complete blood count with differential and reticulocytes using the ADVIA 2120 (Siemens Medical Solutions Diagnostics, Dublin, Ireland), and Microsoft software version 5.9 (Microsoft Corp., Redmond, WA) to generate the data.
Blood parameters were compared between treatment groups using an analysis of variance (ANOVA). The Wilcoxon test was also used for sensitivity and to potentially address data departures from normality. A longitudinal mixed model repeated measures was also implemented to provide a more complete data analysis of the sham-irradiated treatment groups' difference in overall time profile mean based on the blood parameters. Bone marrow data (megakaryocytes and grade) statistical analysis was carried out using a parametric test consisting of a general linear model analysis of variance (ANOVA with factors consisting of treatment group and pathologist) and the Kruskal-Wallis nonparametric test. The statistical data analysis was carried out using R software (Version 3.4.3, 2016) and the graphs made using GraphPad Prism version 7.03 (GraphPad Software, La Jolla, CA).

THP-1 cells = assay: Cytokine array of irradiated THP-1 monocytes and macrophages; assay type: cell-based, human
Description: A cytokine array was employed to examine cytokine expression following in vitro irradiation of human monocytic leukemic THP-1 cells. THP-1 cells were differentiated into macrophages with 50 nM Phorbol 12-myristate 13-acetate (PMA) for 24 hours before treatment. Differentiated and non-differentiated cells were treated with […] RRx-001 or 0.05% DMSO (vehicle control) for 16 hours prior to radiation. The cells were irradiated at 5 Gy or sham-irradiated and collected 4-8 hours later for both analysis. For the cytokine analysis, cell media was collected and blotted onto Proteome Profiler Human Cytokine Arrays (R&D Systems, Inc.) according to the manufacturer's protocol.

Nrf2 = settings: tumor cells exposed to RRx-001; Ning et al., Oncotarget 2015; cited from earlier work
[3] = days 2 and 21 post-irradiation, vs vehicle control

Compound: O=C(CBr)N1CC([N+](=O)[O-])([N+](=O)[O-])C1 [RRx-001, 2-bromo-1-(3,3-dinitroazetidin-1-yl)ethan-1-one]
- increase in mean survival time compared to the vehicle control (CD2F1 male mice [1]; 10 mg/kg 24 hours prior to lethal TBI): 7 days
- increase in survival (CD2F1 male mice [1]; 10 mg/kg 24 hours prior to lethal TBI, vs vehicle control): 33.4%
- survival times, means±standard errors (CD2F1 male mice [1]; 10 mg/kg IP 24 hours prior to 9.35 Gy TBI, 30-day observation, N=24/group): 27.2 ± 1.1 days
- reduction in the 30-day death risk (CD2F1 male mice [1]; one dose 10 mg/kg IP 24 hours prior to 9.35 Gy (LD70/30) TBI, vs vehicle control irradiated mice): ~33.4%
- % RETIC (CD2F1 male mice [2]; day 14, vs control mice): significantly increased
- ALC counts (CD2F1 male mice [2]; day 14, vs controls): significantly increased
- WBC counts (CD2F1 male mice [2]; day 14, vs controls): significantly increased
- % HCT (CD2F1 male mice [2]; day 14, vs irradiated control): significantly increased
- % RETIC (CD2F1 male mice [2]; day 28, vs vehicle controls): significantly increased
- absolute lymphocyte count (ALC) (CD2F1 male mice [2]; [3]): No significant difference
- absolute neutrophil count (ANC) (CD2F1 male mice [2]; [3]): No significant difference
- percent hematocrit (% HCT) (CD2F1 male mice [2]; [3]): No significant difference
- percent reticulocytes (% RETIC) (CD2F1 male mice [2]; [3]): No significant difference
- platelets (PLT) (CD2F1 male mice [2]; [3]): No significant difference
- white blood cells (WBC) (CD2F1 male mice [2]; [3]): No significant difference
- ANC (CD2F1 male mice [2]; days 7 and 14, vs control): significantly increased
- PLT (CD2F1 male mice [2]; days 7 and 14, vs control): significantly increased
- red blood cells and hemoglobin (CD2F1 male mice [2]; irradiated RRx-001 vs irradiated vehicle group): not significantly different
- white blood cells and red blood cell production (CD2F1 male mice [2]; irradiated mice vs irradiated vehicle control): significant increase
- cytokines involved in inflammation (THP-1 cells; THP-1 macrophage fraction, sham and 5 Gy irradiated, 3 mM RRx-001 16 hours): reduction in cytokines involved in inflammation
- pro-inflammatory chemokine IL-8 (THP-1 cells; THP-1 macrophages): reduction
- CCL5/RANTES expression (THP-1 cells; THP-1 monocytes, 3 mM RRx-001 16 hours): induction; also recorded: upregulation
- nuclear presence of transcription factor Nrf2 (Nrf2): increased nuclear presence
